According to patent publication US20060258692A1, “Quinazolinone compositions for regulation of gene expression related to pathological processes” (priority 2002, published 2006):

Tests used:
[1] = test system: collagen α1(I) gene expression; conditions: skin fibroblasts in culture, incl. from scleroderma or cGVHD patients; cited from earlier work
[2] = test system: IGFBP-1 in HepG2, Huh-7, Hep3B, Det551, ROS and HSC cells; experiment: IGFBP-1 synthesis in various cell types (Northern and Western blot); type: cell-based, human; rat; conditions: 50 nM halofuginone, serum-free medium, hepatocyte lines vs fibroblasts, osteoblasts
[3] = test system: rats with TAA-induced liver fibrosis
[4] = test system: TAA-induced cirrhotic liver; experiment: Liver regeneration after 70% partial hepatectomy in TAA-induced cirrhotic rats
[5] = test system: HepG2 cells; experiment: HepG2 cell proliferation (cell number); conditions: 24 h, halofuginone at concentration that affect IGFBP-1 synthesis
[6] = test system: rats insulted with dimethylnitrosamine (DMN) or thioacetamide (TAA); conditions: cited from earlier work
[7] = test system: stellate cells (HSC-T6); experiment: Stellate cell motility assay (phagokinetic tracks); conditions: conditioned medium of HepG2 treated with 50 nM halofuginone (contains IGFBP-1) added to HSC
[8] = test system: IGFBP-1 in rat primary hepatocytes; experiment: IGFBP-1 synthesis in rat primary hepatocytes (Western blot); type: cell-based
[9] = test system: PRL-1 and Apolipoprotein AIV; experiment: Northern blot validation of Atlas microarray results in liver biopsies; type: in vivo, rat; conditions: TAA vs TAA plus halofuginone
[10] = test system: IGFBP-1 in HepG2 cells; experiment: IGFBP-1 gene expression and secretion in HepG2 cells, dose and time response
[11] = test system: IGFBP-1 gene expression; experiment: Northern blot and in situ hybridization of liver biopsies with IGFBP-1 probe
[12] = test system: IGFBP-3 mRNA; experiment: Northern blot of liver biopsies with IGFBP-3 probe

Molecule: O=C(CC1NCCC[C@H]1O)Cn1cnc2cc(Br)c(Cl)cc2c1=O (stereo in doubt) [halofuginone, 7-bromo-6-chloro-3-[3-(3-hydroxy-2-piperidinyl)-2-oxopropyl]-4(3H)-quinazolinone]
- collagen α1(I) gene expression and collagen production [1]: attenuated
- cell types responding with IGFBP-1 gene expression and synthesis [2]: Only cells of the hepatocyte origin demonstrated increased IGFBP-1 gene expression and synthesis
- Ishak staging of fibrosis (grade) ([3]; TAA 200 mg/kg twice weekly plus halofuginone 5 ppm in the diet, 4 weeks, TAA alone grade 5-6): 1-2
- αSMA-positive (activated) stellate cells ([3]; TAA plus halofuginone given orally (5 ppm in diet), 4 weeks, immunohistochemistry): only traces
- collagen level (Sirius red) ([3]; TAA plus halofuginone, 4 weeks): low levels of collagen
- level of TIMP-2 ([3]; TAA plus halofuginone, 4 weeks, compared with TAA-treated rats): reduced
- collagen α1(I) gene expression by remaining stellate cells ([3]; TAA plus halofuginone, 4 weeks, in situ hybridization): low levels
- ECM, collagen, αSMA stellate cells, collagen α1(I) expression, TIMP-2 ([3]; rat, in vivo): No changes
- PCNA labeling index ([4]; eight weeks of halofuginone after TAA, 48 hours after 70% PHx, untreated animals 18.8±2.9): 31.4±6.4
- restituted liver mass ([4]; eight weeks of halofuginone in diet after TAA, 48 hours after 70% PHx, control food group 13.7±4.5, p<0.05): 24.2±5.7%
- liver Ishak staging ([4]; halofuginone treatment of TAA cirrhotic rats): decrease
- cell proliferation (cell number) [5]: significant reduction in cell proliferation
- fibrotic condition ([6]; given to rats with established fibrosis): almost complete resolution
- HSC activation, increase in collagen α1(I) gene expression and collagen deposition ([6]; rats insulted with DMN or TAA): prevent HSC activation and abolish the increase in collagen α1(I) gene expression and collagen deposition
- HSC cell motility (track area) [7]: significant inhibition in cell motility
- IGFBP-1 synthesis (Western blot) ([8]; halofuginone 1 nM, 24 h): increased the synthesis of IGFBP-1
- PRL-1 and Apolipoprotein AIV expression by Northern blotting [9]: confirmed the Atlas microarray findings
- IGFBP-1 gene expression (Northern blot) ([10]; 10 nM halofuginone, 24 h, further increase at higher concentrations, no expression without halofuginone): increased IGFBP-1 gene expression
- time after halofuginone treatment at which increased IGFBP-1 gene expression was observed ([10]; 50 nM halofuginone): 6 h
- time after which IGFBP-1 content in the conditioned media increased ([10]; 50 nM halofuginone): 10 to 15 h
- IGFBP-1 in conditioned medium after halofuginone removal ([10]; 50 nM halofuginone for 11 h, washed, fresh medium for additional 13 h, compared with untreated cells): high levels of IGFBP-1
- incubation time needed for increase in IGFBP-1 secretion ([10]; 50 nM halofuginone, medium replaced, IGFBP-1 detected 23 h later): one hour of incubation with halofuginone was sufficient
- concentration at which an increase in the level of IGFBP-1 in conditioned medium starts (Western blot) ([10]; HepG2, 24 h): ≥ 50 nM
- effect on TAA-induced down-regulation of IGFBP-1 gene expression (Northern blot) ([11]; after 2 and 4 weeks of treatment): prevented the TAA-induced down-regulation
- effect on TAA-induced reduction in IGFBP-1 gene expression (Northern blot) ([11]; after one week of TAA treatment): without any effect
- level of IGFBP-1 mRNA (Northern blot) ([11]; halofuginone alone): slight effect
- IGFBP-1 gene expression by in situ hybridization, TAA-induced decrease ([11]; liver sections after 4 weeks, TAA plus halofuginone): prevented
- IGFBP-3 mRNA levels ([12]; after 1 week of treatment, any of the groups): No changes
- effect on TAA-induced increase in IGFBP-3 level ([12]; after 2 and 4 weeks): partially prevented
- IGFBP-3 mRNA levels ([12]; halofuginone alone, any time-points examined): no effect

Molecule: C[C@@H]1C[C@@H]([C@H](O)CC2CC(=O)NC(=O)C2)C(=O)[C@@H](C)C1 [cyclohexamide]
- effect on halofuginone-dependent increase in IGFBP-1 gene expression ([10]; 10 μg/ml cyclohexamide with 50 nM halofuginone, 24 h): annulled

Molecule: insulin: insulin, comparator incubated with rat primary hepatocytes
- IGFBP-1 synthesis (Western blot) ([8]; insulin, 24 h (10 nM, 100 nM elsewhere in the source)): reduction in IGFBP-1 synthesis
